In test [1] the target is KRAS G12D (Homo sapiens, UniProt P01116, G12D). Kind of test: SOS-catalyzed nucleotide exchange assay, KRAS G12D (Procedure A). The test is classed as biochemical. The note with it: guanine nucleotide exchange (GNE). An outline of the steps:
(§1)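 Preformed TR-FRET complex of biotinylated KRAS (G12C carries C51S/C80L/C118S; others native sequence), Bodipy-GDP and Tb-streptavidin preincubated with compound 60 min at room temperature. Exchange started with human SOS plus 3 mM GTP for 60 min (G13D 30 min). Final RAS/SOS: G12C 3/40 nM; WT, G12D 1/40 nM; G13D 1.25/0 nM. 520/495 nm ratio normalised, fitted to four-parameter logistic.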

The target in test [2] is T1, AsPC-1 cells (Homo sapiens, UniProt P01116, G12D).
T1 construct: p-ERK/total ERK AlphaSureFire read-out
The test can be described thus: Cellular phospho-ERK assay, AsPC-1 cells (KRAS G12D). The settings on record: 2 hours, read-out: AsPC1 pERK IC50. The format is cell-based. An outline of the steps:
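PANC08.13 or AsPC-1 cells (homozygous KRAS G12D) were seeded overnight, then treated for 2 h at 37 °C with a 10-point 1:3 titration from 30 μM. Lysates were assayed by AlphaLISA SureFire for p-ERK and total ERK. IC50 came from a 4-parameter fit of the p-ERK/total ERK ratio.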

In test [3] the target is NRAS (Homo sapiens, UniProt P01111). The test can be described thus: SOS-catalyzed nucleotide exchange assay, NRAS (Procedure A). The test is classed as biochemical. The settings on record: GNE. In short, it runs like this:
(§2)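 Compounds were preincubated 60 min with a biotinylated RAS·Bodipy-GDP/Tb-streptavidin TR-FRET complex, and exchange was started with human SOS plus 3 mM GTP at RT. RAS/SOS: G12C 3 nM/40 nM, WT and G12D 1 nM/40 nM, all 60 min; G13D 1.25 nM/0 nM, 30 min. 520/495 ratio normalized to DMSO and saturating inhibitor, four-parameter fit.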

The target in test [4] is KRAS G12C (Homo sapiens, UniProt P01116, C118S/C51S/C80L/G12C). Kind of test: SOS-catalyzed nucleotide exchange assay, KRAS G12C (Procedure A). The test is classed as biochemical. The settings on record: GNE. An outline of the steps: as §1
The target in test [5] is KRAS G13D (Homo sapiens, UniProt P01116, G13D). The test can be described thus: SOS-catalyzed nucleotide exchange assay, KRAS G13D (Procedure A). The format is biochemical. The note with it: GNE. An outline of the steps:
as §1

Test [6] concerns the target T2, PANC08.13 cells (Homo sapiens, UniProt P01116, G12D).
T2 construct: p-ERK/total ERK AlphaSureFire read-out
Kind of test: Cellular phospho-ERK assay, PANC08.13 cells (KRAS G12D). The format is cell-based. The settings on record: 2 hours, read-out: PANCO 813 pERK IC50. As for the experimental part: Procedure for Cellular Phospho-ERK Assay in KRAS Wild Type and Mutant (G12D, G12V) Cell Lines
PANC08.13 cells (ATCC® CRL-2551™), containing homozygous KRAS-G12D activating mutation, were cultured in growth medium made of RPMI1640-GlutaMAX™-I (ThermoFisher Scientific 61870) containing 15% heat inactivated fetal bovine serum (ThermoFisher Scientific 10091148)). AsPC-1 cells (ATCC® CRL-1682™), containing homozygous KRAS-G12D activating mutation, were cultured in T150 flask in growth medium (RPMI medium 1640-GlutaMAX™-I (ThermoFisher Scientific 61870) containing 10% fetal bovine serum (ThermoFisher Scientific 10091148)).
Cells for the assay were harvested in growth medium after TrypLE (ThermoFisher scientific 12604021) digestion and were seeded in a 384-well collagen coated cell culture plate (Corning 356702) at a density of 10,000-15,000 cells/20 μL/well, and incubated at 37° C., 5% CO2 overnight. The compound (with 10 mM stock concentration) dose-response titrations were prepared [30 μM final ERK detection assay concentration and 1:3 dilutions, 10-point dose response] and appropriate amounts (270 nL) of test compounds were dispensed in a 384-well intermediate plate using an Echo 550 liquid handler. 30 μL/well of RPMI medium 1640-GlutaMAX™-I was added to the intermediate plate and the contents of the intermediate plate (10 μL/well) were then transferred to the 384-well collagen coated cell culture plate, which was incubated at 37° C., 5% CO2 for 2 hours. After removal of medium from the collagen coated cell culture plate, cells were lysed in lysis buffer from Alpha SureFire® Ultra™ Multiplex p-ERK and total ERK assay kit (PerkinElmer MPSU-PTERK) containing Halt™ Protease and Phosphatase inhibitor cocktail (ThermoFisher Scientific 78446) at room temperature with constant shaking at 300 rpm for 30 minutes. The cell lysates were then transferred to an OptiPlate-384 plate (PerkinElmer 6005620), and the phosphorylation of ERK (p-ERK) and total ERK levels were detected by Alpha SureFire® Ultra™ Multiplex p-EEK kit and total ERK assay kit (PerkinElmer MPSU-PTERK) following the manufacturer's protocol. Assay plates were read on a EnVision Multimode Plate Reader (PerkinElmer), and the ratio of p-ERK vs. total ERK in each well was used as the final readout. Dose response curves were analyzed using a 4-parameter logistic model to calculate IC50 values using Spotfire software.

For test [7], the target named is HRAS (Homo sapiens, UniProt P01112). Kind of test: SOS-catalyzed nucleotide exchange assay, HRAS (Procedure A). The format is biochemical. The settings on record: GNE. In short, it runs like this:
as §2

In test [8] the target is KRAS WT (Homo sapiens, UniProt P01116). Kind of test: SOS-catalyzed nucleotide exchange assay, KRAS WT (Procedure A). The format is biochemical. The note with it: GNE. In short, it runs like this: as §1
Test [9] addresses KRAS G12V (Homo sapiens, UniProt P01116, G12V). The test can be described thus: SOS-catalyzed nucleotide exchange assay, KRAS G12V (Procedure A). The format is biochemical. The settings on record: GNE. In short, it runs like this:
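Biotinylated KRAS G12V was loaded with Bodipy-GDP alongside Terbium-streptavidin to form a TR-FRET complex, which was preincubated with compounds for 60 minutes in 384-well plates. Human SOS protein and unlabeled GTP were then added for 90 minutes, giving final concentrations of 1.25 nM KRAS-G12V, 160 nM SOS and 3 mM GTP. The 520/495 nm emission ratio was read on an Envision.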

SMILES strings stand for the structures.

Chain of KRAS G12D (P01116 with tags, fused parts or gaps isoform P01116-2 G12D): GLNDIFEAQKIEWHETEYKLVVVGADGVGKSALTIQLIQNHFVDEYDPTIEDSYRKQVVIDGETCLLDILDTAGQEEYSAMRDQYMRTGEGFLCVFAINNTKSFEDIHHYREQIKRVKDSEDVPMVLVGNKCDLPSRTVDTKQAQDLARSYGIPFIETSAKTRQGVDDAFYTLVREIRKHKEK
Chain of NRAS (P01111 with tags, fused parts or gaps): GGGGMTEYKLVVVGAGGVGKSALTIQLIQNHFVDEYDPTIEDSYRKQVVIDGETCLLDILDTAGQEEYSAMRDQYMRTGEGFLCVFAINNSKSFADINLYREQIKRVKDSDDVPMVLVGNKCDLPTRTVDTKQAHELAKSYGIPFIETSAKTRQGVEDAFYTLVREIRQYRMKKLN
Chain of KRAS G12C (P01116 with tags, fused parts or gaps isoform P01116-2 G12C/C51S/C80L/C118S): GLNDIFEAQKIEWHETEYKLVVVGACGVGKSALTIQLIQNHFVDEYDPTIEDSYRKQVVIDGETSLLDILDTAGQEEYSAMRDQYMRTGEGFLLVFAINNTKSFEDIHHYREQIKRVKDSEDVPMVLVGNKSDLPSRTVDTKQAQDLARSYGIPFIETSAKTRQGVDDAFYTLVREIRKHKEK
Chain of KRAS G13D (P01116 with tags, fused parts or gaps isoform P01116-2 G13D): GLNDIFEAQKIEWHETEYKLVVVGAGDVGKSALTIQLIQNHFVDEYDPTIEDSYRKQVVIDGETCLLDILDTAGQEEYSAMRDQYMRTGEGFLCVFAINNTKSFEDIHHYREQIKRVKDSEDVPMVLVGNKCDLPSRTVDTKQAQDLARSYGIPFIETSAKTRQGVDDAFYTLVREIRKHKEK
Chain of HRAS (P01112 with tags, fused parts or gaps): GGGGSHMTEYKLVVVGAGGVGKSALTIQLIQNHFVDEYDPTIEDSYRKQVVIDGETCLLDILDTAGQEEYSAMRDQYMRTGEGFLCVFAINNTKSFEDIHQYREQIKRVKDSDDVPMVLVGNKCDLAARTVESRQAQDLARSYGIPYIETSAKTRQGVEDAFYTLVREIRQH
Chain of KRAS WT (P01116 with tags, fused parts or gaps isoform P01116-2): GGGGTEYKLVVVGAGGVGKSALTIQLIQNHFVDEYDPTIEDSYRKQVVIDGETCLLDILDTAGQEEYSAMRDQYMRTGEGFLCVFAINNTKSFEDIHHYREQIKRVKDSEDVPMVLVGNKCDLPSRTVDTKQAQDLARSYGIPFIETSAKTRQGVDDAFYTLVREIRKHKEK
Chain of KRAS G12V (P01116 with tags, fused parts or gaps isoform P01116-2 G12V): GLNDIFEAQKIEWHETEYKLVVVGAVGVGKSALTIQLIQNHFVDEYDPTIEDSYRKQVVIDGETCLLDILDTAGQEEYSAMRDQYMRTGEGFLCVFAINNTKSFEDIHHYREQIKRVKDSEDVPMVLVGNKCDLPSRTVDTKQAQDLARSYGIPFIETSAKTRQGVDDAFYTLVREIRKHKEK
T2 sequence (P01116 1-188 isoform P01116-2 G12D): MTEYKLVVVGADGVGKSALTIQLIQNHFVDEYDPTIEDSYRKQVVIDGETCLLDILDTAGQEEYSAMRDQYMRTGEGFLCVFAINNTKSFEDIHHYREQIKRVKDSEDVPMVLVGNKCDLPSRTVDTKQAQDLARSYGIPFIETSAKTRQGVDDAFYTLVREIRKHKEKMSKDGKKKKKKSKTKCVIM
T1 sequence (P01116 1-188 isoform P01116-2 G12D): as above

A word on the IC50: it is the concentration needed to halve the response being measured. As to `C#Cc1cccc2cccc(-c3nccc4c5c(N6C[C@H]7CC[C@@H](C6)N7)nc(OC[C@@]67CCCN6C[C@H](F)C7)nc5n(C)c34)c12` [Ex-9, 4-((1R,5S)-3,8-diazabicyclo[3.2.1]octan-3-yl)-8-(8-ethynylnaphthalen-1-yl)-2-(((2R,7aS)-2-fluoro-tetrahydro-1H-pyrrolizin-7a(5H)-yl)methoxy)-9-methyl-9H-py-rido[4′,3′:4,5]pyrro-lo[2,3-d]pyrimidine], the IC50 is 40.7 nM in test [1]; 490 nM in [2]; above 11100 nM in test [3]; 1550 nM in [4]; 451 nM in test [5]; 315 nM in test [6]. In [7], this compound returned a half-maximal inhibitory concentration (IC50) above 11100 nM.

Turning to `C#Cc1cccc2cccc(-c3nccc4c3sc3nc(OC[C@@]56CCCN5C[C@H](F)C6)nc(N5C[C@H]6CC[C@@H](C5)N6)c34)c12` [Ex-10, 4-((1R,5S)-3,8-diaza-bicyclo[3.2.1]oc-tan-3-yl)-8-(8-ethynylnaphthalen-1-yl)-2-(((2R,7aS)-2-fluoro-tetrahydro-1H-pyrrolizin-7a(5H)-yl)methoxy)pyri-do[4′,3′:4,5]thi-eno[2,3-d]py-rimidine], the IC50 in [1] was 7.11 nM; in [2] it was 398 nM; in test [3] it was above 11100 nM; in test [4] it was 647 nM; in test [5], 604 nM; in test [6], 192 nM. Further, the 50% inhibitory concentration (IC50) in [7] is above 11100 nM; in [8], 4930 nM; in test [9], 6880 nM.

For the compound `Cc1cc2[nH]ncc2c(-c2nccc3c2sc2nc(OC[C@@]45CCCN4C[C@H](F)C5)nc(N4C[C@H]5CC[C@@H](C4)N5)c23)c1C(F)(F)F` [Ex-12, 4-((1R,5S)-3,8-diazabicyclo[3.2.1]octan-3-yl)-2-(((2R,7aS)-2-fluorotetrahydro-1H-pyrrolizin-7a(5H)-yl)methoxy)-8-(6-methyl-5-(trifluoromethyl)-1H-indazol-4-yl)pyrido[4′,3′:4,5]thieno[2,3-d]pyrimidine], the IC50 in test [1] is 6.41 nM; in [2], 200 nM; in [3], above 11100 nM; in test [4], 589 nM; in test [5], 723 nM; in test [6], 88.9 nM. Moreover, the concentration for half-maximal inhibition (IC50) in [7] is above 11100 nM; in test [8], 5810 nM; in test [9], 2070 nM.

As to `Cc1cc2[nH]nc(C#N)c2c(-c2nccc3c2sc2nc(OC[C@@]45CCCN4C[C@H](F)C5)nc(N4C[C@H]5CC[C@@H](C4)N5)c23)c1C(F)(F)F` [Ex-19, 4-(4-((1R,5S)-3,8-diazabicy-clo[3.2.1]oc-tan-3-yl)-2-(((2R,7aS)-2-fluoro-tetrahydro-1H-pyrrolizin-7a(5H)-yl)methoxy)pyri-do[4′,3′:4,5]thieno [2,3-d]pyrimidin-- 8-yl)-6-methyl-5-(trifluoromethyl)-- 1H-indazole-3-carbonitrile], the IC50 in test [1] is 23.4 nM; in [2], 2200 nM; in test [3], above 11100 nM; in [4], 755 nM; in test [5], 1050 nM; in test [6] it was 250 nM. Further, the IC50 in test [7] is above 11100 nM; in [8], 9940 nM; in test [9], above 11100 nM.

Regarding `Cc1cc2[nH]ncc2c(-c2nccc3c4c(N5C[C@H]6CC[C@@H](C5)N6)nc(OC[C@]5(CO)CC5(F)F)nc4n(C)c23)c1C(F)(F)F` [Ex-53, ((1R)-1-(((4-((1R,5S)-3,8-diazabicyclo[3.2.1]octan-3-yl)-9-methyl-8-(6-methyl-5-(trifluoromethyl)-1H-indazol-4-yl)-9H-pyrido[4′,3′:4,5]pyrrolo[2,3-d]pyrimidin-2-yl)oxy)methyl)-2,2-difluorocyclopro-pyl)methanol], the IC50 in [1] was 583 nM; in [3] it was above 11100 nM; in test [4] it was above 11100 nM; in [5] it was 4880 nM; in test [6], 3970 nM; in test [7] it was above 11100 nM. Moreover, the half-inhibitory concentration (IC50) in [8] and in test [9] was above 11100 nM throughout.

Take `Nc1nc2c(-c3nccc4c3sc3nc(OC[C@@]56CCCN5C[C@H](F)C6)nc(N5C[C@H]6CC[C@@H](C5)N6)c34)c(F)cc(F)c2o1` [Ex-15, 4-(4-((1R,5S)-3,8-diazabicyclo[3.2.1]octan-3-yl)-2-(((2R,7aS)-2-fluorotetrahydro-1H-pyrrolizin-7a(5H)-yl)methoxy)pyrido[4′,3′:4,5]thieno [2,3-d]pyrimidin-8-yl)-5,7-difluorobenzo[d]oxazol-2-amine]: the IC50 was 4990 nM in test [1]; above 11100 nM in test [3]; above 11100 nM in [4]; above 11100 nM in [5]; above 10000 nM in test [6]; above 11100 nM in [7]. Besides, the 50% inhibitory concentration (IC50) in test [8] and in test [9] was above 11100 nM in each case.

Turning to `Cn1c2nc(OC[C@]3(CO)CC3(F)F)nc(N3C[C@H]4CC[C@@H](C3)N4)c2c2ccnc(-c3c(F)cc(F)c4sc(N)c(C#N)c34)c21` [Ex-63, 4-(4-((1R,5S)-3,8-diazabicyclo[3.2.1]octan-3-yl)-2-(((R)-2,2-difluoro-1-(hydroxymethyl)cyclopro-pyl)methoxy)-9-methyl-9H-pyrido[4′,3′:4,5]pyrrolo[2,3-d]pyrimidin-8-yl)-2-amino-5,7-difluorobenzo[b]thiophene-3-carbonitrile], the IC50 in test [1] is 73.7 nM; in test [3], above 11100 nM; in test [4], above 11100 nM; in test [5], above 11100 nM; in [6], above 10000 nM; in test [7], above 11100 nM. Moreover, the 50% inhibitory concentration (IC50) in test [8] and in test [9] was above 11100 nM each time.

In the case of `Cc1cc2[nH]ncc2c(-c2nccc3c2sc2nc(OC[C@]4(CO)CC4(F)F)nc(N4C[C@H]5CC[C@@H](C4)N5)c23)c1C(F)(F)F` [Ex-25, ((1R)-1-(((4-((1R,5S)-3,8-diazabicyclo[3.2.1]octan-3-yl)-8-(6-methyl-5-(trifluoromethyl)-1H-indazol-4-yl)pyrido[4′,3′:4,5]thieno[2,3-d]pyrimidin-2-yl)oxy)methyl)-2,2-difluorocyclopropyl)methanol], the IC50 in test [1] was 1020 nM; in test [3], above 11100 nM; in [4], above 11100 nM; in [5], above 11100 nM; in test [6] it was 2870 nM; in [7] it was above 11100 nM. Also, the 50% inhibitory concentration (IC50) in [8] and in test [9] was above 11100 nM in each case.
